Patent USRE47689E1, “Compounds for treating spinal muscular atrophy” (PTC Therapeutics, Inc., priority 2011, dated 2019)

Legend:
Smn protein = Smn protein assay in cultured cells (SMN HTRF); assay type: cell-based, human; conditions: 48 hours; for EC1.5x (concentration giving 1.5-fold Smn protein increase): SMA Type 1 patient fibroblast cells (GM03813), 7-point concentration curve, SMN HTRF, concentration producing 1.5 times Smn protein vs DMSO vehicle control, read-out: EC1.5x for Smn protein expression; for maximum fold (Fold) increase of Smn protein: SMA patient fibroblast cells, 7-point concentration data, fold increase relative to vehicle control (SMN HTRF)
Outline: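 Smn in SMA fibroblast lysates, measured by anti-SMN HTRF after 48 h compound exposure; EC1.5x from fold change over vehicle.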

[1] = tested on: SMN2 minigene (full length SMN2 minigene mRNA containing SMN2 exon 7); test: SMN2 minigene mRNA splicing RT-qPCR assay in cultured cells; assay type: cell-based, human; conditions: Homo sapiens, HEK293-H; HEK293H cells stably transfected with SMN2-A minigene; 24 hours; 7-point concentration curve; 1.5-fold relative to vehicle-treated cells; read-out: EC1.5x for production of full length SMN2 mRNA
Outline: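 Lysates → one-step RT-qPCR, minigene-specific primers (0.4 μM final) + GAPDH multiplex, 40 cycles. FL/GAPDH vs DMSO; EC1.5x, star-binned.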

Row | Compound | melting point | EC1.5x (concentration giving 1.5-fold Smn protein increase) (Smn protein) [nM] | maximum fold (Fold) increase of Smn protein (Smn protein) | EC (1.5-fold) [1] [µM]
1 | Cc1ccc2nc(-c3cc4ccc(N5CCNCC5)cc4oc3=O)cn2c1 [Compound 51, 3-(6-methylimidazo[1,2-a]pyridin-2-yl)-7-(piperazin-1-yl)-2H-chromen-2-one] | 229 to 232 °C | < 300 | ***** (fold increase >1.65) | 0.1 to 0.3
2 | Cc1cn2cc(-c3cc4ccc(N5CCN6CCC[C@H]6C5)cc4oc3=O)nc2c(C)n1 [Compound 634, 3-(6,8-dimethylimidazo[1,2-a]pyrazin-2-yl)-7-[(8aS)-hexahydropyrrolo[1,2-a]pyrazin-2(1H)-yl]-2H-chromen-2-one] | 261 to 263 °C | < 300 | ***** (fold increase >1.65) | < 0.1
3 | O=c1oc2cc(N3CCNCC3)ccc2cc1-c1cn2ccsc2n1 [Compound 88, 3-(imidazo[2,1-b][1,3]thiazol-6-yl)-7-(piperazin-1-yl)-2H-chromen-2-one] | 275 to 280 °C | 1000 to 3000 | *** (fold increase between >1.35 and ≤1.5) | < 0.1
4 | Cc1ccc2nc(-c3cc4ccc(N5CCNC(C)(C)C5)cc4oc3=O)cn2c1 [Compound 222, 7-(3,3-dimethylpiperazin-1-yl)-3-(6-methylimidazo[1,2-a]pyridin-2-yl)-2H-chromen-2-one] | 177 to 180 °C |  | * (maximum fold increase of ≤1.2) | 1 to 3
5 | CC(C)N1CCN(c2ccc3cc(-c4nc5ccccc5s4)c(=O)oc3c2)CC1 [Compound 15, 3-(1,3-benzothiazol-2-yl)-7-[4-(propan-2-yl)piperazin-1-yl]-2H-chromen-2-one] | 238 to 246 °C |  | * (maximum fold increase of ≤1.2) | 3 to 30
6 | CCNCCCc1ccc2cc(-c3cn4cc(C)nc(C)c4n3)c(=O)oc2c1 [Compound 926, 3-(6,8-dimethylimidazo[1,2-a]pyrazin-2-yl)-7-[3-(ethylamino)propyl]-2H-chromen-2-one] | 184 to 186 °C | < 300 | **** (fold increase between >1.5 and ≤1.65) | < 0.1
7 | Cc1cn2cc(-c3cc4ccc(N5CCN(C)[C@H](C)C5)cc4oc3=O)nc2c(C)n1 [Compound 606, 3-(6,8-dimethylimidazo[1,2-a]pyrazin-2-yl)-7-[(3R)-3,4-dimethylpiperazin-1-yl]-2H-chromen-2-one] | 220 to 221 °C | < 300 | ***** (fold increase >1.65) | < 0.1
8 | O=c1oc2cc(N3CCCNCC3)cc(F)c2cc1-c1cn2cccnc2n1 [Compound 336, 7-(1,4-diazepan-1-yl)-5-fluoro-3-(imidazo[1,2-a]pyrimidin-2-yl)-2H-chromen-2-one] | 305 to 307 °C |  | * (maximum fold increase of ≤1.2) | 0.3 to 1
9 | CN1CCCN(c2cc(F)c3cc(-c4cc(F)cc(F)c4)c(=O)oc3c2)CC1 [Compound 365, 3-(3,5-difluorophenyl)-5-fluoro-7-(4-methyl-1,4-diazepan-1-yl)-2H-chromen-2-one] | 161 to 164 °C |  | * (maximum fold increase of ≤1.2) | 1 to 3
10 | Cc1cccn2cc(-c3cc4ccc(N5CCN[C@H](C)C5)cc4oc3=O)nc12 [Compound 247, 3-(8-methylimidazo[1,2-a]pyridin-2-yl)-7-[(3R)-3-methylpiperazin-1-yl]-2H-chromen-2-one] | 299 °C (dec.) |  | ** (fold increase between >1.2 and ≤1.35) | 0.1 to 0.3
11 | Cc1cn2cc(-c3cc4ccc(CCCCN5CCC[C@@H]5CO)cc4oc3=O)nc2c(C)n1 [Compound 904, 3-(6,8-dimethylimidazo[1,2-a]pyrazin-2-yl)-7-{4-[(2R)-2-(hydroxymethyl)pyrrolidin-1-yl]butyl}-2H-chromen-2-one] | 147 to 151 °C | 300 to 1000 | **** (fold increase between >1.5 and ≤1.65) | 0.1 to 0.3
12 | COc1cccc(-c2cc3c(F)cc(N4CCNCC4)cc3oc2=O)n1 [Compound 468, 5-fluoro-3-(6-methoxypyridin-2-yl)-7-(piperazin-1-yl)-2H-chromen-2-one] | 231 to 236 °C |  | ** (fold increase between >1.2 and ≤1.35) | 0.3 to 1
13 | CN1CCN(c2ccc3cc(-c4cn5ccc(C(F)(F)F)cc5n4)c(=O)oc3c2)CC1 [Compound 115, 7-(4-methylpiperazin-1-yl)-3-[7-(trifluoromethyl)imidazo[1,2-a]pyridin-2-yl]-2H-chromen-2-one] | 274 to 280 °C |  | *** (fold increase between >1.35 and ≤1.5) | 0.3 to 1
14 | Cc1cn2cc(-c3cc4ccc(OC5CCN(CCO)CC5)cc4oc3=O)nc2c(C)n1 [Compound 899, 3-(6,8-dimethylimidazo[1,2-a]pyrazin-2-yl)-7-{[1-(2-hydroxyethyl)piperidin-4-yl]oxy}-2H-chromen-2-one] | 165 to 168 °C | < 300 | ***** (fold increase >1.65) | < 0.1
15 | CN1CCN(c2ccc3cc(-c4nc5ccccc5s4)c(=O)oc3c2)CC1 [Compound 16, 3-(1,3-benzothiazol-2-yl)-7-(4-methylpiperazin-1-yl)-2H-chromen-2-one] | 259 to 262 °C |  | ** (fold increase between >1.2 and ≤1.35) | 0.3 to 1
16 | Cc1cn2cc(-c3cc4ccc(N5CCN(C(C)C)CC5)cc4oc3=O)cc2cn1 [Compound 692, 3-(3-methylpyrrolo[1,2-a]pyrazin-7-yl)-7-[4-(propan-2-yl)piperazin-1-yl]-2H-chromen-2-one] | 221 to 225 °C | < 300 | **** (fold increase between >1.5 and ≤1.65) | < 0.1
17 | Cc1cn2cc(-c3cc4ccc(O[C@@H]5CCN(CCO)C5)cc4oc3=O)nc2c(C)n1 [Compound 892, 3-(6,8-dimethylimidazo[1,2-a]pyrazin-2-yl)-7-{[(3R)-1-(2-hydroxyethyl)pyrrolidin-3-yl]oxy}-2H-chromen-2-one] | 190 to 196 °C | < 300 | **** (fold increase between >1.5 and ≤1.65) | < 0.1
18 | Cc1cc(Cl)cn2cc(-c3cc4ccc(N5CCN(C)CC5)cc4oc3=O)nc12 [Compound 264, 3-(6-chloro-8-methylimidazo[1,2-a]pyridin-2-yl)-7-(4-methylpiperazin-1-yl)-2H-chromen-2-one] | 238 °C |  | * (maximum fold increase of ≤1.2) | 1 to 3
